The results in this text go back to ChEMBL document CHEMBL3611985, “Synthesis and structure-activity relationships of novel 9-oxime acylides with improved bactericidal activity” (2015).

Common to all, as to format: functional
Test [1] relates to Staphylococcus aureus. Nature of the test: Bactericidal activity against methicillin-resistant Staphylococcus aureus PU32 expressing inducible ermA incubated for 20 hrs followed by sub-culturing for 24 hrs in absence of compound.
Test [2] relates to Streptococcus pyogenes. Nature of the test: Antimicrobial activity against Streptococcus pyogenes 12-207 expressing mef incubated for 20 to 24 hrs by two-fold microbroth dilution method. A general note: Dilution methods test growth across graded concentrations, often in twofold steps.
The test system of test [3] is Staphylococcus aureus. Nature of the test: Ratio of MBC to MIC against methicillin-resistant Staphylococcus aureus PU32 expressing inducible ermA.
Test [4] has as its system Haemophilus influenzae. Nature of the test: Antimicrobial activity against azithromycin-susceptible and ampicillin-resistant Haemophilus influenzae 11P037 incubated for 20 to 24 hrs by two-fold microbroth dilution method.
Test [5] concerns Haemophilus influenzae. The test is described as follows: Ratio of MBC to MIC against azithromycin-susceptible and ampicillin-resistant Haemophilus influenzae 11P037.
The subject of test [6] is Streptococcus pneumoniae. Nature of the test: Ratio of MBC to MIC against erythromycin-susceptible Streptococcus pneumoniae ATCC 49619.
In test [7] the test system is Streptococcus pyogenes. The test is described as follows: Bactericidal activity against Streptococcus pyogenes 01-968 expressing inducible ermA incubated for 20 to 24 hrs followed by sub-culturing for 24 hrs in absence of compound.
Test [8] relates to Streptococcus pyogenes. Nature of the test: Ratio of MBC to MIC against Streptococcus pyogenes 01-968 expressing inducible ermA.
Test [9] has as its system Haemophilus influenzae. Nature of the test: Bactericidal activity against azithromycin-susceptible and ampicillin-resistant Haemophilus influenzae 11P037 incubated for 20 to 24 hrs followed by sub-culturing for 24 hrs in absence of compound.
The test system of test [10] is Streptococcus pneumoniae. Nature of the test: Ratio of MBC to MIC against penicillin-susceptible Streptococcus pneumoniae PU09.
The test system of test [11] is Streptococcus pneumoniae. The test is described as follows: Bactericidal activity against erythromycin-susceptible Streptococcus pneumoniae ATCC 49619 incubated for 20 to 24 hrs followed by sub-culturing for 24 hrs in absence of compound.
Test [12] has as its system Moraxella catarrhalis. The test is described as follows: Ratio of MBC to MIC against erythromycin-susceptible Moraxella catarrhalis 11B366.
In test [13] the test system is Staphylococcus aureus. The test is described as follows: Antimicrobial activity against methicillin-resistant Staphylococcus aureus PU32 expressing inducible ermA incubated for 20 hrs by two-fold microbroth dilution method. The note with it: PU32, 20 h.
Test [14] has as its system Streptococcus pneumoniae. The test is described as follows: Bactericidal activity against penicillin-susceptible Streptococcus pneumoniae PU09 incubated for 20 to 24 hrs followed by sub-culturing for 24 hrs in absence of compound.
Test [15] deals with Streptococcus pneumoniae. Nature of the test: Antimicrobial activity against penicillin-susceptible Streptococcus pneumoniae PU09 incubated for 20 to 24 hrs by two-fold microbroth dilution method.
Test [16] relates to Streptococcus pyogenes. The test is described as follows: Ratio of MBC to MIC against Streptococcus pyogenes 12-207 expressing mef.
Test [17] deals with Moraxella catarrhalis. The test is described as follows: Bactericidal activity against erythromycin-susceptible Moraxella catarrhalis 11B366 incubated for 20 hrs followed by sub-culturing for 24 hrs in absence of compound.
Test [18] has as its system Streptococcus pyogenes. Nature of the test: Bactericidal activity against Streptococcus pyogenes 12-207 expressing mef incubated for 20 to 24 hrs followed by sub-culturing for 24 hrs in absence of compound.
Test [19] deals with Staphylococcus aureus. Nature of the test: Ratio of MBC to MIC against methicillin-resistant Staphylococcus aureus PU20 expressing constitutive ermC.
The subject of test [20] is Staphylococcus aureus. Nature of the test: Bactericidal activity against methicillin-resistant Staphylococcus aureus PU20 expressing constitutive ermC incubated for 20 hrs followed by sub-culturing for 24 hrs in absence of compound.
In test [21] the test system is Streptococcus pyogenes. Nature of the test: Antimicrobial activity against Streptococcus pyogenes 01-968 expressing inducible ermA incubated for 20 to 24 hrs by two-fold microbroth dilution method.
The test system of test [22] is Moraxella catarrhalis. The test is described as follows: Antimicrobial activity against erythromycin-susceptible Moraxella catarrhalis 11B366 incubated for 20 hrs by two-fold microbroth dilution method. To be noted: 11B366, 20 h.
The subject of test [23] is Staphylococcus aureus. Nature of the test: Antimicrobial activity against methicillin-resistant Staphylococcus aureus PU20 expressing constitutive ermC incubated for 20 hrs by two-fold microbroth dilution method. The note with it: PU20, 20 h.
Test [24] has as its system Streptococcus pneumoniae. The test is described as follows: Antimicrobial activity against erythromycin-susceptible Streptococcus pneumoniae ATCC 49619 incubated for 20 to 24 hrs by two-fold microbroth dilution method.

In brackets after ≈: the same amount, converted by molar mass. Bounds are passed on as bounds.

As to `CC[C@H]1OC(=O)[C@H](C)[C@@H](OC(=O)Cc2ccccn2)[C@H](C)[C@@H](O[C@@H]2O[C@H](C)C[C@H](N(C)C)[C@H]2O)[C@](C)(OC)C[C@@H](C)/C(=N\OCC#Cc2cncc(N)c2)[C@H](C)[C@H]2OC(=O)O[C@@]21C`, the MBC was more than 4 µg/mL in the test on Staphylococcus aureus [1]; 0.5 µg/mL (≈ 0.568 µM) in the test on Streptococcus pyogenes [7]; more than 64 µg/mL in the test on Haemophilus influenzae [9]; 0.008 µg/mL (≈ 0.00909 µM) against Streptococcus pneumoniae [11]; 1 µg/mL (≈ 1.14 µM) against Streptococcus pneumoniae [14]; 2 µg/mL (≈ 2.27 µM) against Moraxella catarrhalis [17]. Also, the MBC with Streptococcus pyogenes [18] was more than 1 µg/mL; in the test with Staphylococcus aureus [20], 256 µg/mL (≈ 291 µM). Moreover, the MIC worked out at 0.125 µg/mL (≈ 0.142 µM) against Streptococcus pyogenes [2]; 8 µg/mL (≈ 9.09 µM) against Haemophilus influenzae [4]; 0.5 µg/mL (≈ 0.568 µM) against Staphylococcus aureus [13]; 0.5 µg/mL (≈ 0.568 µM) against Streptococcus pneumoniae [15]; 0.125 µg/mL (≈ 0.142 µM) in the test on Streptococcus pyogenes [21]; 1 µg/mL (≈ 1.14 µM) with Moraxella catarrhalis [22]. For the same molecule, the results for the MIC with Staphylococcus aureus [23] and in the test with Streptococcus pneumoniae [24] were 128 µg/mL (≈ 145 µM) and not above 0.008 µg/mL, respectively. The Ratio is listed as more than 8 in the test on Staphylococcus aureus [3]; more than 8 in the test on Haemophilus influenzae [5]; “>=1” with Streptococcus pneumoniae [6]; 4 in the test on Streptococcus pyogenes [8]; 2 in the test on Streptococcus pneumoniae [10]; 2 in the test on Moraxella catarrhalis [12]. For the same molecule, the Ratio in the test on Streptococcus pyogenes [16] was more than 8; in the test on Staphylococcus aureus [19] it was 2.

As for `CC[C@H]1OC(=O)[C@H](C)[C@@H](OC(=O)Cc2ccccn2)[C@H](C)[C@@H](O[C@@H]2O[C@H](C)C[C@H](N(C)C)[C@H]2O)[C@](C)(OC)C[C@@H](C)/C(=N\OCC#Cc2cncc(C(N)=O)c2)[C@H](C)[C@H]2OC(=O)O[C@@]21C`, the MBC in the test on Staphylococcus aureus [1] was more than 4 µg/mL; in the test with Streptococcus pyogenes [7], 0.062 µg/mL (≈ 0.0683 µM); against Haemophilus influenzae [9] it was 64 µg/mL (≈ 70.5 µM); with Streptococcus pneumoniae [11], 0.016 µg/mL (≈ 0.0176 µM); with Streptococcus pneumoniae [14] it was 1 µg/mL (≈ 1.1 µM); in the test with Moraxella catarrhalis [17] it was 2 µg/mL (≈ 2.2 µM). Also, the MBC was more than 0.125 µg/mL with Streptococcus pyogenes [18] and more than 256 µg/mL with Staphylococcus aureus [20]. Moreover, the MIC with Streptococcus pyogenes [2] turned out to be 0.016 µg/mL (≈ 0.0176 µM); in the test on Haemophilus influenzae [4], 8 µg/mL (≈ 8.81 µM); against Staphylococcus aureus [13], 0.5 µg/mL (≈ 0.551 µM); against Streptococcus pneumoniae [15], 0.5 µg/mL (≈ 0.551 µM); in the test with Streptococcus pyogenes [21], 0.031 µg/mL (≈ 0.0341 µM); in the test on Moraxella catarrhalis [22], 1 µg/mL (≈ 1.1 µM). Moreover, the MIC was 256 µg/mL (≈ 282 µM) in the test on Staphylococcus aureus [23] and 0.016 µg/mL (≈ 0.0176 µM) against Streptococcus pneumoniae [24]. In addition, the Ratio is listed as more than 8 with Staphylococcus aureus [3]; 8 with Haemophilus influenzae [5]; 1 with Streptococcus pneumoniae [6]; 2 in the test with Streptococcus pyogenes [8]; 2 in the test with Streptococcus pneumoniae [10]; 2 in the test with Moraxella catarrhalis [12]. The Ratio is recorded as more than 8 in the test on Streptococcus pyogenes [16] and more than 2 in the test with Staphylococcus aureus [19].
